PubChem BioAssay (NCI)
Values joined by “and” are separate entries in the source; they are usually repeats but may differ in a detail not shown here. Identical values can stand only once.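 These data come from cells grown in 96-well plates and exposed to compound for 48 hours at five concentrations. Here, GI50 denotes the concentration required for 50% inhibition of growth. TGI: total growth inhibition.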

Experiments:
Experiment in all cases: inhibition of tumour cell growth, NCI panel, 48 h
SF-268 CNS = tested on: SF-268 CNS
SR leukemia = tested on: SR leukemia
SW-620 colon = tested on: SW-620 colon
UO-31 renal = tested on: UO-31 renal
EKVX NSCLC = tested on: EKVX NSCLC
OVCAR-3 ovarian = tested on: OVCAR-3 ovarian
CCRF-CEM leukemia = tested on: CCRF-CEM leukemia
SN12C renal = tested on: SN12C renal
TK-10 renal = tested on: TK-10 renal

SMILES: COc1cc([N+](=O)[O-])c(S(=O)(=O)O)cc1-n1nc(-c2ccccc2)n[n+]1-c1cc(S(=O)(=O)[O-])c([N+](=O)[O-])cc1OC
- TGI (SF-268 CNS): > 100 µM
- TGI (SR leukemia): > 100 µM
- TGI (SW-620 colon): > 100 µM
- TGI (UO-31 renal): > 100 µM
- TGI (EKVX NSCLC): > 100 µM
- TGI (OVCAR-3 ovarian): > 100 µM
- TGI (CCRF-CEM leukemia): > 100 µM
- TGI (SN12C renal): > 100 µM

SMILES: CCc1nc2cc(/C=C/C(=O)NO)c(F)cc2c(=O)n1CCc1ccccc1
- GI50 (SF-268 CNS): 0.829 µM
- TGI (SF-268 CNS): 5.27 µM
- GI50 (SR leukemia): 0.731 µM
- TGI (SR leukemia): > 100 µM
- GI50 (SW-620 colon): 0.619 µM
- TGI (SW-620 colon): 13.9 µM
- GI50 (UO-31 renal): 0.735 µM
- TGI (UO-31 renal): 2.73 µM
- GI50 (TK-10 renal): 0.881 µM
- TGI (TK-10 renal): 5.49 µM
- GI50 (EKVX NSCLC): 2.36 µM
- TGI (EKVX NSCLC): 10.7 µM
- GI50 (OVCAR-3 ovarian): 0.385 µM
- TGI (OVCAR-3 ovarian): 4.76 µM
- GI50 (CCRF-CEM leukemia): 0.564 µM
- TGI (CCRF-CEM leukemia): > 100 µM

SMILES: CC(=O)OC1CC(C)c2c1ncnc2N1CCN(C(=O)OC(C)(C)C)CC1 (stereo not given)
- GI50 (SF-268 CNS): 67.2 µM
- TGI (SF-268 CNS): > 100 µM
- GI50 (SR leukemia): 21.6 µM
- TGI (SR leukemia): 63.7 µM
- GI50 (SW-620 colon): 42.9 µM
- TGI (SW-620 colon): > 100 µM
- GI50 (UO-31 renal): > 100 µM
- TGI (UO-31 renal): > 100 µM
- GI50 (TK-10 renal): 70.8 µM
- TGI (TK-10 renal): > 100 µM
- GI50 (OVCAR-3 ovarian): 32.3 µM
- TGI (OVCAR-3 ovarian): 82.7 µM
- GI50 (CCRF-CEM leukemia): 32.9 µM
- TGI (CCRF-CEM leukemia): > 100 µM
- GI50 (SN12C renal): 79.4 µM
- TGI (SN12C renal): > 100 µM

SMILES: CN([N-]C(=O)CC(=O)[N-]N(C)C(=S)c1ccccc1)C(=S)c1ccccc1.[Cu+2]
- GI50 (SF-268 CNS): 0.037 µM
- TGI (SF-268 CNS): 0.176 µM
- GI50 (SR leukemia): < 0.01 µM
- GI50 (SW-620 colon): 0.0206 µM
- TGI (SW-620 colon): 0.108 µM
- GI50 (UO-31 renal): 0.0666 µM
- TGI (UO-31 renal): 0.231 µM
- GI50 (TK-10 renal): 0.0461 µM
- TGI (TK-10 renal): 0.174 µM
- GI50 (OVCAR-3 ovarian): < 0.01 µM
- TGI (OVCAR-3 ovarian): 0.03 µM
- GI50 (CCRF-CEM leukemia): < 0.01 µM
- TGI (CCRF-CEM leukemia): 0.121 µM
- GI50 (SN12C renal): 0.124 µM
- TGI (SN12C renal): 0.253 µM

SMILES: COc1cccc2c1C(=O)c1c(O)c3c(c(O)c1C2=O)C[C@@](O)(C(=O)COC(=O)c1cccnc1)C[C@@H]3OC1CC(N)C(O)C(C)O1 (stereo not given in full)
- GI50 (SF-268 CNS): 0.155 µM
- TGI (SF-268 CNS): 1.53 µM
- GI50 (SR leukemia): 0.0173 µM
- TGI (SR leukemia): 2.4 µM
- GI50 (SW-620 colon): 0.0605 µM
- TGI (SW-620 colon): 2.17 µM
- GI50 (UO-31 renal): 0.46 µM
- TGI (UO-31 renal): 2.89 µM
- GI50 (TK-10 renal): 0.149 µM
- TGI (TK-10 renal): 0.845 µM
- GI50 (OVCAR-3 ovarian): 0.287 µM
- TGI (OVCAR-3 ovarian): 2.52 µM
- GI50 (CCRF-CEM leukemia): 0.0574 µM
- TGI (CCRF-CEM leukemia): 1.19 µM
- GI50 (SN12C renal): 0.083 µM
- TGI (SN12C renal): 3.68 µM

SMILES: Cc1ccc(S(=O)(=O)NC(C)C(=O)O)cc1 (stereo not given)
- TGI (SF-268 CNS): > 100 µM
- TGI (SW-620 colon): > 100 µM
- TGI (UO-31 renal): > 100 µM
- TGI (TK-10 renal): > 100 µM
- TGI (EKVX NSCLC): > 100 µM
- TGI (OVCAR-3 ovarian): > 100 µM
- GI50 (CCRF-CEM leukemia): 47.2 µM and > 100 µM
- TGI (CCRF-CEM leukemia): > 100 µM
- TGI (SN12C renal): > 100 µM

SMILES: CC(=O)c1ccc(NCn2nc(-c3ccccc3O)oc2=S)cc1
- GI50 (SF-268 CNS): > 100 µM
- TGI (SF-268 CNS): > 100 µM
- GI50 (SW-620 colon): 29.8 µM
- TGI (SW-620 colon): > 100 µM
- GI50 (UO-31 renal): > 100 µM
- TGI (UO-31 renal): > 100 µM
- GI50 (TK-10 renal): 67.1 µM
- TGI (TK-10 renal): > 100 µM
- GI50 (EKVX NSCLC): > 100 µM
- TGI (EKVX NSCLC): > 100 µM
- GI50 (OVCAR-3 ovarian): > 100 µM
- TGI (OVCAR-3 ovarian): > 100 µM
- GI50 (SN12C renal): 27 µM
- TGI (SN12C renal): 64.9 µM

SMILES: c1ccc(CN2CCC3(CC2)ONC2=NCCN23)cc1
- GI50 (SF-268 CNS): 89.8 µM
- TGI (SF-268 CNS): > 100 µM
- GI50 (SW-620 colon): 75 µM
- TGI (SW-620 colon): > 100 µM
- GI50 (UO-31 renal): 22.3 µM
- TGI (UO-31 renal): > 100 µM
- GI50 (TK-10 renal): 72 µM
- TGI (TK-10 renal): > 100 µM
- GI50 (EKVX NSCLC): > 100 µM
- TGI (EKVX NSCLC): > 100 µM
- GI50 (OVCAR-3 ovarian): 19.5 µM
- TGI (OVCAR-3 ovarian): 87.3 µM
- GI50 (CCRF-CEM leukemia): 31 µM
- TGI (CCRF-CEM leukemia): > 100 µM
- GI50 (SN12C renal): 27.1 µM
- TGI (SN12C renal): 82 µM
